Data as given in patent US6683073B1, “Pyrimidine linked pyrrolo[2,1-c][1,4]benzodiazepines as potential antitumour agents” (Council of Scientific and Industrial Research, priority 2003, dated 2004).

Legend:
[1] = test system: sixty human tumour cells derived from nine cancer types; experiment: NCI in vitro cytotoxicity screen, 48 h drug exposure, sulforhodamine B (SRB) protein assay; format: cell-based; details: for Log10 GI50 mean graph midpoint (MG_MID): concentration causing 50% cell growth inhibition; for Log10 GI50 mean graph midpoint (MG_MID) / Log10 TGI mean graph midpoint (MG_MID): mean over human tumour cell lines, 48 h exposure; for Log10 TGI mean graph midpoint (MG_MID): total cell growth inhibition (0% growth)
Protocol: (§1) Biological Activity: In vitro biological activity studies were carried out at National Cancer Institute (USA).
(§2) Cytotoxicity: Compounds VIa and VIb were evaluated in vitro against sixty human tumour cells derived from nine cancer types (leukemia, non-small-cell lung, colon, CNS, melanoma, ovarian, prostate, and breast cancer). For each compound, dose response curves for each cell line were measured at a minimum of five concentrations at 10 fold dilutions. A protocol of 48 h continuous drug exposure was used and a sulforhodamine B (SRB) protein assay was used to estimate cell viability or growth. The concentration causing 50% cell growth inhibition (GI50), total cell growth inhibition (TGI 0% growth) and 50% cell death (LC50, −50% growth) compared with the control was calculated.

Leukaemia cell lines = experiment: NCI in vitro cytotoxicity screen (SRB), leukaemia panel; format: cell-based, human; details: average of six to eight different cancer cell lines
Protocol: as §1, §2
(§3) Each cancer type represents the average of six to eight different cancer cell lines.

[2] = test system: non-small-cell lung cancer cell lines; experiment: NCI in vitro cytotoxicity screen (SRB), non-small-cell lung panel; format: cell-based, human; details: average of six to eight different cancer cell lines
Protocol: as §1, §2, §3

Colon cancer cell lines = experiment: NCI in vitro cytotoxicity screen (SRB), colon panel; format: cell-based, human; details: average of six to eight different cancer cell lines
Protocol: as §1, §2, §3

CNS cancer cell lines = experiment: NCI in vitro cytotoxicity screen (SRB), CNS panel; format: cell-based, human; details: average of six to eight different cancer cell lines
Protocol: as §1, §2, §3

Melanoma cell lines = experiment: NCI in vitro cytotoxicity screen (SRB), melanoma panel; format: cell-based, human; details: average of six to eight different cancer cell lines
Protocol: as §1, §2, §3

[3] = test system: Ovarian cancer cell lines; experiment: NCI in vitro cytotoxicity screen (SRB), ovarian panel; format: cell-based, human; details: average of six to eight different cancer cell lines
Protocol: as §1, §2, §3

Renal cancer cell lines = experiment: NCI in vitro cytotoxicity screen (SRB), renal panel; format: cell-based, human; details: average of six to eight different cancer cell lines
Protocol: as §1, §2, §3

[4] = test system: Prostate cancer cell lines; experiment: NCI in vitro cytotoxicity screen (SRB), prostate panel; format: cell-based, human; details: average of six to eight different cancer cell lines
Protocol: as §1, §2, §3

Breast cancer cell lines = experiment: NCI in vitro cytotoxicity screen (SRB), breast panel; format: cell-based, human; details: average of six to eight different cancer cell lines
Protocol: as §1, §2, §3

SMILES	Log10 GI50 mean graph midpoint (MG_MID) [1]	Log10 TGI mean graph midpoint (MG_MID) [1]	in vitro cytotoxicity, log10 value (quantity not given) (Leukaemia cell lines)	in vitro cytotoxicity, log10 value (quantity not given) [2]	in vitro cytotoxicity, log10 value (quantity not given) (Colon cancer cell lines)	in vitro cytotoxicity, log10 value (quantity not given) (CNS cancer cell lines)	in vitro cytotoxicity, log10 value (quantity not given) (Melanoma cell lines)	in vitro cytotoxicity, log10 value (quantity not given) [3]	in vitro cytotoxicity, log10 value (quantity not given) (Renal cancer cell lines)	in vitro cytotoxicity, log10 value (quantity not given) [4]	in vitro cytotoxicity, log10 value (quantity not given) (Breast cancer cell lines)	cytotoxic / anticancer activity, in words ([1]; human tumour cell lines)
COc1cc2c(cc1OCCCOc1cc(-c3ccc(F)cc3)nc(C)n1)N=C[C@@H]1CCCN1C2=O [VIa, 7-methoxy-8-[6′-(4″-fluorophenyl)-2′-methylpyrimidine-4′-yloxy]propoxy-(11aS)-1,2,3,11a-tetrahydro-5H-pyrrolo[2,1,c][1,4]benzodiazepin-5-one]	−4.73	−4.34	−4.03	−4.07	−4.12	−4.10	−4.14	−4.05	−4.18	−4.00	−4.09	–
COc1cc2c(cc1OCCCCOc1cc(-c3ccc(F)cc3)nc(C)n1)N=C[C@@H]1CCCN1C2=O [VIb, 7-methoxy-8-[6′-(4″-fluorophenyl)-2′-methylpyrimidine-4′-yloxy]butoxy-(11aS)-1,2,3,11a-tetrahydro-5H-pyrrolo[2,1,c][1,4]benzodiazepin-5-one]	−6.41	−5.57	−5.41	−4.61	−4.67	−4.40	−5.22	−4.33	−4.39	−4.45	−4.52	slightly higher activity
